From patent US7790749B2, “Use of pleuromutilins for the treatment of disorders caused by Helicobacter pylori” (Nabriva Therapeutics AG, priority 2002, dated 2010) come the findings set out here.

Holding throughout (assay type): cell-based
The test system of one assay is H.pylori ATCC 43504. Nature of the assay: Agar Dilution Method, MIC against H.pylori ATCC 43504. The following applies: Helicobacter pylori, ATCC43504, 72 h, read-out: minimum inhibitory concentrations (MIC). As for the experimental part:
(§1) Activity against strains of Helicobacter pylori is determined according to the Agar Dilution Method, using Mueller Hinton agar, supplementet with >2 week old horse blood (5% v/v), incubation at 35° C. for 3 days in a gas system-generated microaerobic atmosphere according to NCCLS recommendations, such as disclosed e.g. in “Methods for dilution antimicrobial susceptibility tests for bacteria that grow aerobically ”—Fourth edition; approved standard. M7-A4 Vol. 17 No. 2 (1997) and M100-S9 Vol. 19 No. 1 (1999).
(§2) Activity of TEST COMPOUNDS (TCs) against H.pylori strains ATCC 43504, 43526, 43629, 49503 and 51652 is determined according to the Agar Dilution Method, using Mueller Hinton agar, supplementet with >2 week old horse blood (5% v/v), incubation at 35° C. for 3 days in a gas system-generated microaerobic atmosphere according to NCCLS recommendations, such as disclosed in “Methods for dilution antimicrobial susceptibility tests for bacteria that grow aerobically “—Fourth edition; approved standard. M7-A4 Vol. 17 No. 2 (1997) and M100-S9 Vol. 19 No. 1(1999).

In the next assay the test system is H.pylori ATCC 43526. Nature of the assay: Agar Dilution Method, MIC against H.pylori ATCC 43526. The following applies: Helicobacter pylori, ATCC43526, 72 h, read-out: minimum inhibitory concentrations (MIC). As for the experimental part: as §1, §2
In another assay the test system is H.pylori ATCC 43629. Nature of the assay: Agar Dilution Method, MIC against H.pylori ATCC 43629. The following applies: Helicobacter pylori, ATCC43629, 72 h, read-out: minimum inhibitory concentrations (MIC). As to the method: as §1, §2
(In general: Agar dilution tests growth on a series of plates holding different concentrations.)

The subject of the next assay is H.pylori ATCC 49503. Description: Agar Dilution Method, MIC against H.pylori ATCC 49503. The following applies: Helicobacter pylori, ATCC49503, 72 h, read-out: minimum inhibitory concentrations (MIC). As for the experimental part: as §1, §2
For another assay, the system named is H.pylori ATCC 51652. Description: Agar Dilution Method, MIC against H.pylori ATCC 51652. The following applies: Helicobacter pylori, ATCC51652, 72 h, read-out: minimum inhibitory concentrations (MIC). As for the experimental part:
as §1, §2

Setting [1] is: H.pylori/43504, Mueller Hinton agar, 5% horse blood, 35° C., 3 days, microaerobic.
Setting [2] is: H.pylori/43526, Mueller Hinton agar, 5% horse blood, 35° C., 3 days, microaerobic.
The mark [3] stands for this setting: H.pylori/43629, Mueller Hinton agar, 5% horse blood, 35° C., 3 days, microaerobic.
Where [4] appears, read: H.pylori/49503, Mueller Hinton agar, 5% horse blood, 35° C., 3 days, microaerobic.
Setting [5] is: H.pylori/51652, Mueller Hinton agar, 5% horse blood, 35° C., 3 days, microaerobic.

Structures are written as SMILES. Values after ≈ are worked out from the molar mass of the structure shown. Where two headings read alike, the source gives them in different places.

Consider `C=C[C@]1(C)C[C@@H](OC(=O)CSC(C)(C)CNC(=O)[C@H](N)C(C)C)[C@]2(C)[C@H](C)CC[C@]3(CCC(=O)[C@H]32)[C@@H](C)[C@@H]1O` [TC-I, Valnemulin], for which the MIC in the assay on H.pylori ATCC 43504 (setting [1]) was 0.025 µg/mL (≈ 0.0443 µM); in the assay with H.pylori ATCC 43526 (setting [2]), 0.05 µg/mL (≈ 0.0885 µM); in the assay on H.pylori ATCC 43629 (setting [3]) it was less than 0.0125 µg/mL; in the assay on H.pylori ATCC 49503 (setting [4]) it was less than 0.0125 µg/mL; in the assay with H.pylori ATCC 51652 (setting [5]) it was 0.025 µg/mL (≈ 0.0443 µM).

Regarding `C=C[C@]1(C)C[C@@H](OC(=O)CSC2CCCN(C(=O)C(N)C(C)C)C2)[C@]2(C)C(C)CCC3(CCC(=O)C32)[C@@H](C)C1O` (some centres unmarked) [TC-III], the MIC was 0.025 µg/mL (≈ 0.0433 µM) in the assay on H.pylori ATCC 43504 (setting [1]); 0.05 µg/mL (≈ 0.0867 µM) in the assay on H.pylori ATCC 43526 (setting [2]); less than 0.0125 µg/mL in the assay with H.pylori ATCC 43629 (setting [3]); 0.025 µg/mL (≈ 0.0433 µM) in the assay on H.pylori ATCC 49503 (setting [4]); 0.025 µg/mL (≈ 0.0433 µM) with H.pylori ATCC 51652 (setting [5]).

For the compound `C=C[C@]1(C)C[C@@H](OC(=O)CSc2cccc(NC(=O)[C@@H]3CCCCN3)c2)[C@]2(C)C(C)CCC3(CCC(=O)C32)[C@@H](C)C1O` (some centres unmarked) [TC-II], the MIC in the assay with H.pylori ATCC 43504 (setting [1]) is less than 0.0125 µg/mL; with H.pylori ATCC 43526 (setting [2]) it was 0.05 µg/mL (≈ 0.0838 µM); with H.pylori ATCC 43629 (setting [3]), less than 0.0125 µg/mL; in the assay with H.pylori ATCC 49503 (setting [4]) it was 0.025 µg/mL (≈ 0.0419 µM); in the assay on H.pylori ATCC 51652 (setting [5]), 0.025 µg/mL (≈ 0.0419 µM).

For the compound `CN(C)[C@@H]1C(O)=C(C(N)=O)C(=O)[C@@]2(O)C(O)=C3C(=O)c4c(O)cccc4[C@@](C)(O)[C@H]3C[C@@H]12` [TEC, tetracycline], the MIC in the assay on H.pylori ATCC 43504 turned out to be 0.4 µg/mL (≈ 0.9 µM); in the assay with H.pylori ATCC 43526, 0.4 µg/mL (≈ 0.9 µM); in the assay on H.pylori ATCC 43629, 0.4 µg/mL (≈ 0.9 µM); with H.pylori ATCC 49503, 0.2 µg/mL (≈ 0.45 µM); with H.pylori ATCC 51652, 0.2 µg/mL (≈ 0.45 µM).
